Measured values published in patent US11161823B2, “Anticancer 1,3-dioxane-4,6-dione derivatives and method of combinatorial synthesis thereof” (National Guard Health Affairs, priority 2019, dated 2021).
Where two headings read alike, the source gives them in different places.

Experiments:
KAIMRC1 (Breast) = assay: MTT cell proliferation assay, KAIMRC1; type: cell-based, human; conditions: MTT, 48 h treatment, medium with 10% FBS, read-out: IC50 μM KAIMRC1 (Breast)
Excerpt: The immortalized cell lines included in the testing panel of this disclosure are MCF7 (a breast cancer cell line), MCF10 (immortalized human breast epithelial cells), MDA-MB231 (an epithelial, human breast cancer cell line that was established from a pleural effusion of a patient with a metastatic mammary adenocarcinoma), KAIMRC1 (a naturally immortalized human breast carcinoma cell line), KAIMRC2 (a naturally immortalized breast cancer cell line). The primary cells available for lead toxicity assays are, without limitation: hepatocytes (supplied by Xenotech, Bioscience Lonza, Accegen, Biocompare, Gibco, Zen-Bio, Takarabio, AxolBio, Creative Bioarray), cardiomyocytes (supplied by Cellartis, Axolbio, Cedarlanelabs, EMD Millipore, Takara Bio, Neuromics, AcceGene), primary neurons (AcceGen, Cellapplications, Neuromics, Biocompare, AxolBio, BrainXcell), endothelial lining (Thermofisher, Accegen, Biocompare, Promocell, ATCC). Multicellular 3D organoids raised by differentiating iPSC (induced pluripotent stem cells) are provided by Sigma Aldrich (the iPSC cell lines, organoids), Tocris Bioscience, Thermofisher, Stemcell Technologies, Takara Bio, Emulatebio (Human organ chips), Prodolabs.
(§1) Cell Culture: The human breast cancer epithelial cell lines MDA-MB-231 (HTB-26™), MCF-7 (HTB-22™), colon cancer cell lines HCT 116 (CCL-247™) and […] (CCL-244™) were obtained from American Type Culture Collection (ATCC). Additionally, KAIMRC1 cell line was isolated and developed at KAIMRC from a breast cancer patient. All the cells were grown in advanced DMEM containing 10% fetal bovine serum (FBS), 50 units/mL penicillin, 50 ug/mL streptomycin (GIBCO), and 2 mM glutamine (GIBCO). The cells were cultured at 37° C. in a humidified 5% CO2 atmosphere for 24 hours before experimental procedure.
(§2) Cell Proliferation Assay (MTT): Cells were plated on flat-bottom 96-well plates at a density of 5×10^3 cells/well in 100 μL growth medium. Serial dilutions of the compounds, ranging from 100 nM-100 μM were tested on the cells in triplicates. Additional rows with only the compounds and only cells were added in order to account for the compounds and cells effect. Cells were incubated with compounds for 48 h at 37° C. with 5% CO2.
(§3) After 48 h treatment, the cell viability was determined using the MTT viability assay. Briefly, 5 μL of MTT reagent (5 mg/mL stock) per 95 μl cell culture medium was added to each well and incubated for 3 h at 37° C. with 5% CO2. After 3 h the supernatant was removed, and the MTT formazan crystals were dissolved in dimethyl sulfoxide (DMSO) by shaking the plate for 30 mins at RT. The absorbance was measured on Molecular Devices microplate absorbance reader at 560 nm. The percentage of viable cells was calculated as the ratio of the absorbance of the treated group divided by the absorbance of the control group multiplied by 100. The absorbance from the untreated control cells was set as 100% viable. IC50 values were calculated from dose-response curves generated using a polynomial dose-response approximation using Prism 8 software. The IC50 values (µM) obtained for the compounds of present invention on MDA-MD 231 (breast), MCF-7 (breast), KAIMRC1 (breast), HCT116 (colon) and HCT8 (colon) are summarized in Table 5 and 6.

MCF-7 (Breast) = assay: MTT cell proliferation assay, MCF-7; type: cell-based, human; conditions: MTT, 48 h treatment, medium with 10% FBS, read-out: IC50 μM MCF-7 (Breast)
Experimental: as §1, §2, §3

[1] = tested on: MDA MB-231 cell line (Breast); assay: MTT cell proliferation assay, MDA MB-231; type: cell-based, human; conditions: MTT, 48 h treatment, medium with 10% FBS, read-out: IC50 μM MDA MB-231 (Breast)
Experimental: as §1, §2, §3

HCT 8 (Colon) = assay: MTT cell proliferation assay, HCT 8; type: cell-based, human; conditions: MTT, 48 h treatment, medium with 10% FBS, read-out: IC50 μM HCT 8 (Colon)
Experimental: as §1, §2, §3

[2] = tested on: MDA-MD 231 (breast), MCF-7 (breast), KAIMRC1 (breast), HCT116 (colon) and HCT8 (colon); assay: MTT assay, review of Tables 5 and 6 (whole cell line panel); type: cell-based, human; conditions: review of Tables 5 and 6, MTT IC50
Experimental: as §1, §2, §3
The presence of nitrogen in certain positions of quinoline and/or iso-quinoline ring is the structure-activity determinant, and the subsequent variations in the nitrogen positions and substituents in this ring produce stronger leads by the methods of combinatorial expansion disclosed herein.

ThP1 (leukemia) = assay: Cell Titre Glo luminescent cell viability assay, ThP1; type: cell-based; conditions: Cell Titre Glo luminescence, normalized to DMSO controls
Excerpt: (§4) Another embodiment discloses Titer Glo Assay for the characterization of the synthesized compounds. The CellTiter-Glo® Luminescent Cell Viability Assay is a homogeneous method of determining the number of viable cells in culture based on quantitation of the ATP present, an indicator of metabolically active cells. The CellTiter-Glo® Assay is designed for use with multiwell formats, making it ideal for automated high-throughput screening (HTS), cell proliferation, and cytotoxicity assays. The homogeneous assay procedure involves adding the single reagent (CellTiter-Glo® Reagent) directly to cells cultured in serum-supplemented medium. Cell washing, removal of medium, and multiple pipetting steps are not required. The system detects as few as 15 cells/well in a 384-well format in 10 minutes after adding reagent and mixing.
as §1
(§5) Cell Titre Glo assay was performed on two Leukemia cell lines, HL 60 and ThP1 as per manufacturer's (Promega) recommendations. Briefly, plates were prepared as mentioned in cell culture section. 100 µL of Cell Titre Glo was added directly to the wells. After incubation for 30 minutes at room temperature, luminescence was measured using the Envision plate reader (Perkin Elmer). Luminescence readings were normalized to averaged DMSO controls and expressed as relative percentage. IC50 values were calculated from dose-response curves generated using a polynomial dose-response approximation using Prism 8 software.

HCT116 (Colon) = assay: MTT cell proliferation assay, HCT116; type: cell-based, human; conditions: MTT, 48 h treatment, medium with 10% FBS, read-out: IC50 μM HCT116 (Colon)
Experimental: as §1, §2, §3

HL 60 (leukemia) = assay: Cell Titre Glo luminescent cell viability assay, HL 60; type: cell-based; conditions: Cell Titre Glo luminescence, normalized to DMSO controls
Excerpt: as §4, §1, §5

Row | SMILES | IC50 (KAIMRC1 (Breast); Homo sapiens) [µM] | IC50 (MCF-7 (Breast); Homo sapiens, MCF7) [µM] | IC50 ([1]; Homo sapiens, MDA-MB-231) [µM] | IC50 (HCT 8 (Colon); Homo sapiens, HCT-8) [µM] | range of activity compared with Mitoxanthrone [2] | IC50 (ThP1 (leukemia); Homo sapiens, THP-1) [µM] | IC50 (HCT116 (Colon); Homo sapiens, HCT-116) [µM] | IC50 (KAIMRC1 (Breast)) [µM] | IC50 (MCF-7 (Breast)) [µM] | IC50 [1] [µM] | IC50 (HCT 8 (Colon)) [µM] | IC50 (HL 60 (leukemia)) [µM] | IC50 (ThP1 (leukemia)) [µM] | IC50 (HCT116 (Colon)) [µM] | IC50 (HL 60 (leukemia); Homo sapiens, HL-60) [µM]
1 | CCC1(C)OC(=O)C(=C/C=C/c2ccncc2)C(=O)O1 (centres unmarked) [Example 9, 2-ETHYL-2-METHYL-5-(3-PYRIDIN-4-YL-ALLYLIDENE)-[1,3]DIOXANE-4,6-DIONE] | 21.6 | 24.2 | 5.03 | 2.17 | range of activity that begins to overlap with that of Mitoxanthrone | 2.81 | 3.54 | – | – | – | – | – | – | – | –
2 | O=C1c2c(O)ccc(O)c2C(=O)c2c(NCCNCCO)ccc(NCCNCCO)c21 [Mitoxanthrone, reference compound] | – | – | – | – | – | – | – | 10.1 | 3.61 | 0.51 | 1.25 | 0.7 | 0.22 | 0.71 | –
3 | CCC1(C)OC(=O)C(=CC=Cc2ccnc3ccccc23)C(=O)O1 (centres unmarked) [Example 13, 2-ETHYL-2-METHYL-5-(3-QUINOLIN-4-YL-ALLYLIDENE)-[1,3]DIOXANE-4,6-DIONE] | 14.4 | 9.15 | 11 | 19.8 | range of activity that begins to overlap with that of Mitoxanthrone | 0.88 | 6.38 | – | – | – | – | – | – | – | 1.04
4 | CCC1(C)OC(=O)C(=CC=Cc2cncc3ccccc23)C(=O)O1 (centres unmarked) [Example 12, 2-ETHYL-5-(3-ISOQUINOLIN-4-YL-ALLYLIDENE)-2-METHYL-[1,3]DIOXANE-4,6-DIONE] | 4.25 | 9.29 | 6.05 | 1.87 | range of activity that begins to overlap with that of Mitoxanthrone | 1.82 | 2.47 | – | – | – | – | – | – | – | 2.05
5 | CC1(C)OC(=O)C(=CC=Cc2cncc3ccccc23)C(=O)O1 [Example 10, 5-(3-ISOQUINOLIN-4-YL-ALLYLIDENE)-2,2-DIMETHYL-[1,3]DIOXANE-4,6-DIONE] | 4.45 | – | – | 1.37 | range of activity that begins to overlap with that of Mitoxanthrone | 1.51 | – | – | – | – | – | – | – | – | –
6 | O=C1OC2(CCC2)OC(=O)C1=CC=Cc1cccc2ccccc12 [Example 20, 7-(3-NAPHTHALEN-1-YL-ALLYLIDENE)-5,9-DIOXA-SPIRO[3.5]NONANE-6,8-DIONE] | 11.9 | 4.24 | – | 3.87 | – | 2.04 | 4.84 | – | – | – | – | – | – | – | 2.41
7 | CC1(C)OC(=O)C(=CC=Cc2ccnc3ccccc23)C(=O)O1 [Example 11, 2,2-DIMETHYL-5-(3-QUINOLIN-4-YL-ALLYLIDENE)-[1,3]DIOXANE-4,6-DIONE] | 33.2 | 19.7 | 14.1 | 14.1 | – | 1.68 | 10.4 | – | – | – | – | – | – | – | 1.86
